The text below walks through data of patent US20250084092A1, “ANNULATED PYRIDAZINE COMPOUND” (Nico Therapeutics, Inc., priority 2021, published 2025).

Structures can show the parent of a compound that is named as a salt.

This assay deals with T1, NLRP3 inflammasome (Homo sapiens, UniProt Q96P20).
T1 construct: endogenous in cells; host or cells: THP-1 cells (PMA-differentiated, stimulated with LPS and ATP)
As to the kind of experiment: THP-1 IL-1β production inhibition test. The format is cell-based. Particulars: PMA-treated THP-1 cells, LPS 50 ng/mL + ATP 5 mM, 2 hours, IL-1β in supernatant by ELISA. Here is the method: PMA (phorbol myristate acetate, SIGMA, P1585) was added to THP-1 cells in an amount of 50 ng/mL to culture the cells for 2 days at 37° C. […] LPS (Lipopolysaccharide, SIMGA, L2880) and ATP (Adenosine triphosphate, SIGMA, A2383) were added so that final concentrations become 50 ng/mL and 5 mM, respectively, followed by culturing at 37° C. for 2 hours. The supernatants were collected to measure the concentrations of IL-1β by ELISA (DuoSet ELISA human IL-1β, R&D Systems, DY201). The IL-1β concentrations were plotted against log concentrations of test compounds, and an IC50 value was calculated by sigmoid Emax model nonlinear regression analysis.
(In general: In an ELISA, binding on a coated surface is turned into a signal by an enzyme label.)

T1 sequence (Q96P20 whole entry): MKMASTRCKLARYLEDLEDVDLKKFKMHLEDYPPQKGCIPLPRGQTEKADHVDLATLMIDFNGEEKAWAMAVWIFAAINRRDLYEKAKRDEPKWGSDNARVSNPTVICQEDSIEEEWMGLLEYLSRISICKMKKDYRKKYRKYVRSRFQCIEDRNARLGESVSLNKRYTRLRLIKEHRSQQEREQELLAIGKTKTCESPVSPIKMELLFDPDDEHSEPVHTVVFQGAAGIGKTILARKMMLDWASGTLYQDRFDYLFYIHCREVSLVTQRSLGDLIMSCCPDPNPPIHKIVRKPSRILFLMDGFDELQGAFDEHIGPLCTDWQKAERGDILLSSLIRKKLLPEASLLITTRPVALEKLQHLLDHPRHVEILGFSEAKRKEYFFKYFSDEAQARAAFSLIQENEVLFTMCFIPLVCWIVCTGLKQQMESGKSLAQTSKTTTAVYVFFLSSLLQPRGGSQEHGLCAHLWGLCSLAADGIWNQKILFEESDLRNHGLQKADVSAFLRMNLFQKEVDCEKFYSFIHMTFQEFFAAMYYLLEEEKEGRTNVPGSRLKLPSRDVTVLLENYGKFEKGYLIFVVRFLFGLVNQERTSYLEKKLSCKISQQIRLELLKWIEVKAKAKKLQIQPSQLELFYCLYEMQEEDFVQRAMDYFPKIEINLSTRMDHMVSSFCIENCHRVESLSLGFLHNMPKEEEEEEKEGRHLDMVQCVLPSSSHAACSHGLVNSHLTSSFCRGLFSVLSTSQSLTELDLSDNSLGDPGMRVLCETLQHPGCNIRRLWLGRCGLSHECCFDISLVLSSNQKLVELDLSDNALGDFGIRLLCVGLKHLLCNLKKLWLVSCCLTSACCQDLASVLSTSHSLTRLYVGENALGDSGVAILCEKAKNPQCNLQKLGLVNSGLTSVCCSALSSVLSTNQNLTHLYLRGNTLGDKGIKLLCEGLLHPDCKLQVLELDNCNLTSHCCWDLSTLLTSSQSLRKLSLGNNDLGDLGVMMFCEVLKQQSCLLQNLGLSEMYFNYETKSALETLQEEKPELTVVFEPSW

Regarding `COc1ccc(-c2nnc(N[C@@H]3CCOC[C@H]3O)c3c2CCCCC3)c(O)c1` [Example 49], the IC50 (usually the point on the concentration scale where inhibition reaches its midpoint) was 22 nM.

Take `COc1ccc(-c2nnc(N[C@@H]3CCOC[C@H]3O)c3c2CCCC3)c(O)c1` [Example 38]: the 50% inhibitory concentration (IC50) amounted to 54 nM.

For `C[C@@H](O)CCc1nnc(-c2ccc(C(F)(F)F)cc2O)c2c1CCCC2` [Example 20], the half-inhibitory concentration (IC50) turned out to be 22 nM.

With `N[C@@H]1CCCC[C@H]1Nc1nnc(-c2ccc(C(F)(F)F)cc2O)c2c1CCOC2` [Example 95, 2-(1-{[(1R,2R)-2-aminocyclohexyl]amino}-7,8-dihydro-5H-pyrano[3,4-d]pyridazin-4-yl)-5-(trifluoromethyl)phenol], the concentration for half-maximal inhibition (IC50) is 61 nM.

Turning to `Oc1cc(C(F)(F)F)ccc1-c1nnc(N[C@H]2CCC(F)(F)C2)c2ccccc12` [Example 11], the concentration for half-maximal inhibition (IC50) worked out at 16 nM.

As to `Oc1cc(Cl)ccc1-c1nnc(N[C@@H]2CCOC[C@H]2O)c2c1CCCC2` [Example 39], the 50% inhibitory concentration (IC50) was 19 nM.

For the compound `Oc1cc(C2CC2)ccc1-c1nnc(N[C@@H]2CCCC[C@H]2O)c2c1CCCC2` [Example 51], the 50% inhibitory concentration (IC50) turned out to be 13 nM.

In the case of `C[C@@H](O)CNc1nnc(-c2ccc(C(F)(F)F)cc2C(F)(F)F)c2c1CN(C)CC2` [Example 74], the IC50 was 1400 nM.

In the case of `Oc1cc(C(F)(F)F)ccc1-c1nnc(N[C@@H]2CCCC[C@H]2O)c2c1COCCC2` [108(1)], the IC50 stood at 27 nM.

As for `C[C@@H](O)CCc1nnc(-c2ccc(C(F)(F)F)cc2O)c2c1CCC2` [Example 22], the half-inhibitory concentration (IC50) was found to be 69 nM.

As to `Oc1cc(C(F)(F)F)c(F)cc1-c1nnc(N[C@@H]2CCCC[C@H]2O)c2c1CCCC2` [Example 85], the half-maximal inhibitory concentration (IC50) is 58 nM.

As to `CC(C)(O)CNc1nnc(-c2ccc(C(F)(F)F)cc2O)c2c1CCC2` [Example 21], the IC50 amounted to 81 nM.

`Oc1cc(OC(F)(F)F)ccc1-c1nnc(N[C@@H]2CCOC[C@H]2O)c2c1CCCC2` [Example 37]: the 50% inhibitory concentration (IC50) came to 18 nM.

For the compound `CC(=O)N1CCc2c(-c3ccc(C(F)(F)F)cc3C(F)(F)F)nnc(NC[C@@H](C)O)c2C1` [Example 79, 1-{1-[2,4-bis(trifluoromethyl)phenyl]-4-{[(2R)-2-hydroxypropyl]amino}-7,8-dihydropyrido[3,4-d]pyridazin-6(5H)-yl}ethan-1-one], the 50% inhibitory concentration (IC50) amounted to 4800 nM.

For the compound `Oc1cc(C(F)F)ccc1-c1nnc(N[C@@H]2CCC[C@H](O)C2)c2c1COC2` [Example 114, 5-(difluoromethyl)-2-(4-{[(1R,3S)-3-hydroxycyclohexyl]amino}-5,7-dihydrofuro[3,4-d]pyridazin-1-yl)phenol], the concentration for half-maximal inhibition (IC50) was 15 nM.

As to `Oc1cc(C(F)(F)F)ccc1-c1nnc(NCC2(O)CCC2)c2ccccc12` [Example 12], the 50% inhibitory concentration (IC50) was 58 nM.

In the case of `CN1CCC[C@@H](Nc2nnc(-c3ccc(OC(F)F)cc3O)c3c2CCOC3)C1` [Example 120], the half-maximal inhibitory concentration (IC50) was 1 nM.

Regarding `Cc1ccc(-c2nnc(N[C@@H]3CCOC[C@H]3O)c3c2CCCC3)c(O)c1` [Example 36], the IC50 came to 32 nM.

For the compound `Oc1cc(C(F)(F)F)ccc1-c1nnc(N[C@@H]2CCCC[C@H]2O)c2ccccc12` [Example 15], the IC50 turned out to be 2.8 nM.

Turning to `CC(=O)N1CCC[C@@H](Nc2nnc(-c3ccc(C(F)(F)F)cc3O)c3ccccc23)C1` [Example 63], the IC50 is 9.4 nM.

With `Cc1ccc(-c2nnc(N[C@H]3C[C@@](C)(O)C3)c3c2CCCC3)c(O)c1` [Example 31], the IC50 is 44 nM.

Turning to `OCC12CC(Nc3nnc(-c4ccc(C(F)(F)F)cc4O)c4c3CCCC4)(C1)C2` [Example 40], the half-maximal inhibitory concentration (IC50) is 50 nM.

For `C[C@]1(O)C[C@@H](Nc2nnc(-c3ccc(OC(F)(F)F)cc3O)c3c2COCC3)C1` [57(1)], the IC50 came out at 19 nM.

Regarding `Oc1cc(C(F)(F)F)ccc1-c1nnc(N[C@@H]2CCCNC2)c2c1CCCC2` [Example 96, 2-(4-{[(3R)-piperidin-3-yl]amino}-5,6,7,8-tetrahydrophthalazin-1-yl)-5-(trifluoromethyl)phenol], the IC50 was found to be 45 nM.

Take `Oc1cc(C(F)(F)F)ccc1-c1nnc(N[C@@H]2CCCC[C@H]2O)c2c1CCCOC2` [108(2)]: the half-maximal inhibitory concentration (IC50) was 3 nM.

With `Cc1ccc(-c2nnc(N[C@@H]3CCCC[C@@]3(C)O)c3c2CCCC3)c(O)c1` [Example 55], the 50% inhibitory concentration (IC50) was 36 nM.

For the compound `C[C@@]1(O)CCCC[C@H]1Nc1nnc(-c2ccc(OC(F)(F)F)cc2O)c2c1CCCC2` [Example 54], the IC50 was determined as 21 nM.

For the compound `CN1CCc2c(-c3ccc(OC(F)(F)F)cc3O)nnc(N[C@@H]3CCCC[C@H]3O)c2C1` [Example 76], the IC50 worked out at 23 nM.

`Oc1cc(Cl)ccc1-c1nnc(N[C@@H]2CCCC[C@H]2O)c2c1CCCC2` [Example 25]: the IC50 was 4.6 nM.

As to `C[C@]1(O)C[C@@H](Nc2nnc(-c3ccc(OC(F)(F)F)cc3O)c3c2CCOC3)C1` [57(2)], the half-inhibitory concentration (IC50) is 94 nM.

For the compound `Cc1cc(O)c(-c2nnc(N[C@@H]3CCCC[C@H]3O)c3c2COCC3)c(F)c1` [62(2)], the IC50 was found to be 27 nM.

With `O=S1(=O)CCc2c(-c3ccc(C(F)(F)F)cc3O)nnc(N[C@@H]3CCCC[C@H]3O)c2C1` [Example 129, 4-{[(1R,2R)-2-hydroxycyclohexyl]amino}-1-[2-hydroxy-4-(trifluoromethyl)phenyl]-7,8-dihydro-6λ^6-thiopyrano[3,4-d]pyridazin-6,6(5H)-dione], the IC50 worked out at 86 nM.

Regarding `CC(=O)N[C@@H]1CCCC[C@H]1Nc1nnc(-c2ccc(C(F)(F)F)cc2O)c2ccccc12` [Example 23], the 50% inhibitory concentration (IC50) was found to be 17 nM.

As to `Oc1cc(OC(F)(F)F)ccc1-c1nnc(N[C@@H]2CCCC[C@H]2O)c2c1CCOC2` [Example 135, 2-(4-{[(1R,2R)-2-hydroxycyclohexyl]amino}-7,8-dihydro-5H-pyrano[3,4-d]pyridazin-1-yl)-5-(trifluoromethoxy)phenol monohydrochloride], the half-maximal inhibitory concentration (IC50) was 2.9 nM.

Take `Cc1ccc(-c2nnc(N[C@@H]3CCOC[C@H]3O)c3c2CCCCC3)c(O)c1` [Example 46]: the half-inhibitory concentration (IC50) is 11 nM.

As for `Oc1cc(C(F)(F)F)ccc1-c1nnc(N[C@@H]2CCCC[C@H]2O)c2c1CCC2` [Example 19], the concentration for half-maximal inhibition (IC50) came to 81 nM.

As for `Oc1cc(OC(F)(F)F)ccc1-c1nnc(N[C@@H]2CCCC[C@@H]2O)c2c1CCOC2` [Example 127, 2-(4-{[(1R,2S)-2-hydroxycyclohexyl]amino}-7,8-dihydro-5H-pyrano[3,4-d]pyridazin-1-yl)-5-(trifluoromethoxy)phenol], the IC50 came out at 5.6 nM.

For the compound `N[C@@H]1CCCC[C@H]1Nc1nnc(-c2ccc(C(F)(F)F)cc2O)c2ccccc12` [Example 82, 2-(4-{[(1R,2R)-2-aminocyclohexyl]amino}phthalazin-1-yl)-5-(trifluoromethyl)phenol dihydrochloride], the 50% inhibitory concentration (IC50) came out at 28 nM.

Turning to `Cc1ccc(-c2nnc(NCCCO)c3c2CCCC3)cc1` [Example 6], the half-inhibitory concentration (IC50) was determined as 9000 nM.

For the compound `Oc1cc(C(F)(F)F)ccc1-c1nnc(N[C@@H]2CCCC[C@H]2O)c2sccc12` [Example 94, 2-(7-{[(1R,2R)-2-hydroxycyclohexyl]amino}thieno[2,3-d]pyridazin-4-yl)-5-(trifluoromethyl)phenol], the 50% inhibitory concentration (IC50) turned out to be 5.1 nM.

For `C[C@@H](O)CNc1nnc(-c2ccc(C(F)(F)F)cc2O)c2cnccc12` [16(2)], the half-maximal inhibitory concentration (IC50) stood at 20 nM.

In the case of `O=S1(=O)Cc2c(N[C@@H]3CCCC[C@H]3O)nnc(-c3ccc(C(F)(F)F)cc3O)c2C1` [131(1)], the IC50 was found to be 3 nM.

Consider `C[C@@H](O)CNc1nnc(-c2ccc(C(F)(F)F)cc2C(F)(F)F)c2c1CN(Cc1ccccc1)CC2` [Example 9], for which the half-maximal inhibitory concentration (IC50) worked out at 1300 nM.

`Cc1ccc(-c2nnc(N[C@@H]3CCCC[C@H]3O)c3c2CCCC3)c(O)c1` [Example 26]: the IC50 amounted to 15 nM.

Turning to `N#C[C@@H]1CCCC[C@H]1Nc1nnc(-c2ccc(C(F)(F)F)cc2O)c2c1COCC2` [72(1)], the half-maximal inhibitory concentration (IC50) amounted to 27 nM.

With `Oc1cc(OC(F)(F)F)ccc1-c1nnc(N[C@@H]2CCCC[C@H]2O)c2c1CCCC2` [Example 27], the IC50 came out at 4.1 nM.

In the case of `Oc1cc(OC(F)F)ccc1-c1nnc(N[C@@H]2CCCC[C@H]2O)c2c1CCCOC2` [Example 116], the half-maximal inhibitory concentration (IC50) was found to be 4.4 nM.

On to `CN1CCC[C@@H](Nc2nnc(-c3ccc(Cl)cc3O)c3c2COCC3)C1` [Example 109], for which the half-inhibitory concentration (IC50) is 1.5 nM.

In the case of `CC1(C)SCc2c(N[C@@H]3CCCN(CC(F)F)C3)nnc(-c3ccc(C(F)(F)F)cc3O)c21` [Example 132, 2-(4-{[(3R)-1-(2,2-difluoroethyl)piperidin-3-yl]amino}-7,7-dimethyl-5,7-dihydrothieno[3,4-d]pyridazin-1-yl)-5-(trifluoromethyl)phenol], the concentration for half-maximal inhibition (IC50) was found to be 95 nM.

Take `COc1ccc(-c2nnc(N[C@@H]3CCCC[C@H]3O)c3c2CCOC3)c(O)c1` [Example 69]: the IC50 was determined as 6.6 nM.

As for `Oc1cc(C(F)(F)F)ccc1-c1nnc(N[C@@H]2CCC[C@H](O)C2)c2c1CCOC2` [Example 104], the IC50 came out at 3.5 nM.

`C[C@]1(O)C[C@@H](Nc2nnc(-c3ccc(OC(F)(F)F)cc3O)c3c2CCCC3)C1` [Example 32]: the IC50 came to 76 nM.

Regarding `C[C@@]1(O)CCCC[C@H]1Nc1nnc(-c2ccc(C(F)(F)F)cc2O)c2c1CCCC2` [Example 53], the IC50 turned out to be 15 nM.

On to `Oc1cc(C(F)F)ccc1-c1nnc(N[C@@H]2CCCC[C@H]2O)c2c1CCOC2` [Example 87], for which the IC50 turned out to be 6.5 nM.

Consider `CN1CCC[C@@H](Nc2nnc(-c3ccc(OC(F)F)cc3O)c3c2COCC3)C1` [Example 136, 5-(difluoromethoxy)-2-(4-{[(3R)-1-methylpiperidin-3-yl]amino}-7,8-dihydro-5H-pyrano[3,4-d]pyridazin-1-yl)phenol dihydrochloride], for which the IC50 amounted to 2.2 nM.
